# Source: article PMC4664966, “Discovery and characterization of novel inhibitors of the sodium-coupled citrate transporter (NaCT or SLC13A5)” (Scientific Reports, 2015)
# Legend:
# mice fed a HFD = test: Chronic treatment of mice fed a HFD (OGTT, hepatic lipids)
# Protocol: In studies requiring chronic treatment with compound, mice were purchased at 18 weeks of age following 13 weeks of HFD administration (D12459i; 60% of the calories from fat). Mice were maintained on HFD for the duration of the study in a 12:12-h light/dark cycle. […] To perform an oral glucose tolerance test (day 20 of dosing), mice were fasted at 6:00 AM to 12:00 PM and administered P.O. 1.5 g/kg at 12:00 PM. Glucose concentrations were determined using an AlphaTrak (Abbott Laboratories) at 0, 15, 30, 60, and 90 minutes. […] Hepatic lipids were measured by LC-MS/MS as previously described[42].
# [1] = target: Serotonin receptor 1A (5-HT1A) (Homo sapiens, UniProt P08908); test: Selectivity data (Table S1); type: binding
# [2] = target: Cholecystokinin receptor B (CCKBR) (Homo sapiens, UniProt P32239); test: Selectivity data (Table S1); type: binding
# [3] = target: Adrenergic receptor, alpha-2B (ADRA2B) (Homo sapiens, UniProt P18089); test: Selectivity data (Table S1); type: binding
# [4] = target: Muscarinic acetylcholine receptor 1 (M1) (Homo sapiens, UniProt P11229); test: Selectivity data (Table S1); type: binding
# [5] = target: Monoacylglycerol acyltransferase 2 (MGAT2) (Homo sapiens, UniProt Q3SYC2); test: Selectivity data (Table S1); type: biochemical
# [6] = target: Opioid receptor, mu (MOP) (Homo sapiens, UniProt P35372); test: Selectivity data (Table S1); type: binding
# [7] = HFD mice, 250 mg/kg BID for 21 days
# Chain of Monoacylglycerol acyltransferase 2 (MGAT2) (Q3SYC2 whole entry): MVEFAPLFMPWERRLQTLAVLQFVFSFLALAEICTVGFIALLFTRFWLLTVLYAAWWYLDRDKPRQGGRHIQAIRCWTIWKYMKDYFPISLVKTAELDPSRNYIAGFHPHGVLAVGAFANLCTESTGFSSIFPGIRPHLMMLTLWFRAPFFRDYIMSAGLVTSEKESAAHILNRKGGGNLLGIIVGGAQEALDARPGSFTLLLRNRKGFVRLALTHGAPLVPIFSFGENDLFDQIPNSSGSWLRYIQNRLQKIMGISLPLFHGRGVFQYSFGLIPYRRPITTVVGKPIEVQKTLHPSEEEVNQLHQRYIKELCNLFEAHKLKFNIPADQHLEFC
# Chain of Adrenergic receptor, alpha-2B (ADRA2B) (P18089 whole entry): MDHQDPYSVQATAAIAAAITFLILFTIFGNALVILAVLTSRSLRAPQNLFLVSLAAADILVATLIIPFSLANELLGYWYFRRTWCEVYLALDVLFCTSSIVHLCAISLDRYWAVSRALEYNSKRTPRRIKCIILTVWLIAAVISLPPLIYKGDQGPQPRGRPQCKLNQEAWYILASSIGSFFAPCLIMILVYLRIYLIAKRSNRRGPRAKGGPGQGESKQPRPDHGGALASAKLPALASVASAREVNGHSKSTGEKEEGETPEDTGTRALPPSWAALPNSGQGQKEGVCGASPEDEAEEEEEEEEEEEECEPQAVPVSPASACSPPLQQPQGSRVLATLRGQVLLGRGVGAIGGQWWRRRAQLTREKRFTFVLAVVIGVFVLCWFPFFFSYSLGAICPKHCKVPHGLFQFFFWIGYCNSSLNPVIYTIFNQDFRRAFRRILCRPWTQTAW
# Chain of Opioid receptor, mu (MOP) (P35372 whole entry): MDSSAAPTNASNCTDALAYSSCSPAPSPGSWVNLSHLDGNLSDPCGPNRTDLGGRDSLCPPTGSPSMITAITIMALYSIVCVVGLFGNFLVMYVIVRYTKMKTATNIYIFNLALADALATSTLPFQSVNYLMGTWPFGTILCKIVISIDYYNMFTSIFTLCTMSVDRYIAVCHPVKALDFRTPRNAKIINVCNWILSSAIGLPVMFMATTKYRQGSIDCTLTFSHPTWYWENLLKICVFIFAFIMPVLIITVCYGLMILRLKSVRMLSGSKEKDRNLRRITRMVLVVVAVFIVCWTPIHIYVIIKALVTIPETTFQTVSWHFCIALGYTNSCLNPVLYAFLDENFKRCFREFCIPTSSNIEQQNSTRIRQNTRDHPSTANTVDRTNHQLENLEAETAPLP
# Chain of Cholecystokinin receptor B (CCKBR) (P32239 whole entry): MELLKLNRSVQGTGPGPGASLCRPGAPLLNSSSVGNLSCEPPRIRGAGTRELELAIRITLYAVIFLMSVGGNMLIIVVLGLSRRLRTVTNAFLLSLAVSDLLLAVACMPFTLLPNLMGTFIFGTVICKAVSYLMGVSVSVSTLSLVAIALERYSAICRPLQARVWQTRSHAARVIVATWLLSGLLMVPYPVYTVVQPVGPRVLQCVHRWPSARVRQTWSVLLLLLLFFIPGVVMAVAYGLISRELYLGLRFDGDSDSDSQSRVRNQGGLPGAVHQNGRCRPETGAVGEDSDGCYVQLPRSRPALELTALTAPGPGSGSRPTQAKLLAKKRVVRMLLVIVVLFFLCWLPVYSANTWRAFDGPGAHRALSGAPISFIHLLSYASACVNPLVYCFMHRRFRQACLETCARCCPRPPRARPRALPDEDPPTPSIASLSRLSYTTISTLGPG
# Chain of Serotonin receptor 1A (5-HT1A) (P08908 whole entry): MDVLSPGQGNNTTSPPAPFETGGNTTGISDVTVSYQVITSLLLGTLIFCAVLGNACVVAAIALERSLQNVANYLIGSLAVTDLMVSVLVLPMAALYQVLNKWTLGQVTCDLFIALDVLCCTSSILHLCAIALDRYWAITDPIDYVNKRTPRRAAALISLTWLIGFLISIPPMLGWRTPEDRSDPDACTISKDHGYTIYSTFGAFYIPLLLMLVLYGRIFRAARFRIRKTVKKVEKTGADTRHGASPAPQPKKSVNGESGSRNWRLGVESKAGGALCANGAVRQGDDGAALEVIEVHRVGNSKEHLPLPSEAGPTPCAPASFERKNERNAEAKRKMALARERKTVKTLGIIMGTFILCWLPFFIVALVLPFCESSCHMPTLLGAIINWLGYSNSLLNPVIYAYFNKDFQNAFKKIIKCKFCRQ
# Chain of Muscarinic acetylcholine receptor 1 (M1) (P11229 whole entry): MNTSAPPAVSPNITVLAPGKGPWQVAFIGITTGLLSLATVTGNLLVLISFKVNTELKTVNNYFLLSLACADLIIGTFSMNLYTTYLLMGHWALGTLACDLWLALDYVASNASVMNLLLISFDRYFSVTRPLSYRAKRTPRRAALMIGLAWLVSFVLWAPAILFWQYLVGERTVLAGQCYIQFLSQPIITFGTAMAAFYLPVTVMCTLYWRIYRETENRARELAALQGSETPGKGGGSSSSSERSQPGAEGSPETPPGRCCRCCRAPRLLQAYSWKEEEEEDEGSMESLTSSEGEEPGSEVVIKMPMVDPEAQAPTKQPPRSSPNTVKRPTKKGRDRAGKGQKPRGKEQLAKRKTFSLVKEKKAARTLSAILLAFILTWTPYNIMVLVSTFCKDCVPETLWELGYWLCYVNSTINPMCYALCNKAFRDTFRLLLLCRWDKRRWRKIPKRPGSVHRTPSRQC
smiles,measurement,setting,value
CC(C)(C)c1ccc(CC[C@@](O)(CC(=O)O)C(=O)O)cc1 [Compound 2],plasma insulin concentrations area under the curve during OGTT,"mice fed a HFD; HFD mice, 250 mg/kg BID",no differences
same,hepatic TAG and DAG,mice fed a HFD; [7],trend for lower
same,hepatic acylcarnitine,mice fed a HFD; [7],higher levels
same,β-hydroxybutyrate concentrations,mice fed a HFD; [7],0.49 ± 0.06 mmol/L
same,glucose intolerance during OGTT,"mice fed a HFD; HFD mice, 250 mg/kg BID, day 20",completely reversed
same,phenotype analogous to epileptic encephalopathy,mice fed a HFD; during the in vivo experiments,no phenotype analogous to epileptic encephalopathy was observed
same,inhibition at 100 µM,[1],< 10%
same,inhibition at 100 µM,[2],< 10%
same,inhibition at 100 µM,[3],< 10%
same,inhibition at 100 µM,[4],< 10%
same,IC50,[5],> 50 µM
same,inhibition at 100 µM,[6],< 10%
